Reference: PMC12732675, “Catalytically Active Recombinant Cysteine Proteases of Haemonchus contortus: Their Ability to Degrade Host Blood Proteins and Modulate Coagulation” (International Journal of Molecular Sciences, 2025)

What was measured:
[1] = target: T1, mHcCBP1 (Haemonchus contortus, UniProt A0A7I4Z8W6); assay: ovine fibrinogen degradation, SDS-PAGE; format: biochemical; details: 10 and 50 uM E-64, 15 min pre-incubation, PBS pH 7.4, 37 °C, 16 h; irreversible, covalent
T1 construct: native signal peptide replaced by CD5 signal; C-terminal His tag; secreted from FreeStyle 293-F cells; Ni-NTA purified
T1 sequence (A0A7I4Z8W6 entry or part of it): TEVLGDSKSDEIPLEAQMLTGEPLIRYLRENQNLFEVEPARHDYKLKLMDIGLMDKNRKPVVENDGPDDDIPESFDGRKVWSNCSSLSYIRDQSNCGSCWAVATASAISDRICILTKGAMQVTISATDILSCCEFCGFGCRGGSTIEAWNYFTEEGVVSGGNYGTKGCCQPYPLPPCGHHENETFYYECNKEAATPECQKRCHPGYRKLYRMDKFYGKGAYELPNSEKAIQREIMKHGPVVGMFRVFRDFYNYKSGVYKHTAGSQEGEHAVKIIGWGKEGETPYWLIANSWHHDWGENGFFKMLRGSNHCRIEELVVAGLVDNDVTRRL

[2] = target: T2, mHcCP1c (Haemonchus contortus, UniProt A0A7I4XTV4); assay: ovine fibrinogen degradation, SDS-PAGE; format: biochemical; details: 10 and 50 uM E-64, 15 min pre-incubation, PBS pH 7.4, 37 °C, 16 h; irreversible, covalent
T2 construct: native signal peptide replaced by CD5 signal; C-terminal His tag; secreted from FreeStyle 293-F cells; Ni-NTA purified
T2 sequence (A0A7I4XTV4 entry or part of it): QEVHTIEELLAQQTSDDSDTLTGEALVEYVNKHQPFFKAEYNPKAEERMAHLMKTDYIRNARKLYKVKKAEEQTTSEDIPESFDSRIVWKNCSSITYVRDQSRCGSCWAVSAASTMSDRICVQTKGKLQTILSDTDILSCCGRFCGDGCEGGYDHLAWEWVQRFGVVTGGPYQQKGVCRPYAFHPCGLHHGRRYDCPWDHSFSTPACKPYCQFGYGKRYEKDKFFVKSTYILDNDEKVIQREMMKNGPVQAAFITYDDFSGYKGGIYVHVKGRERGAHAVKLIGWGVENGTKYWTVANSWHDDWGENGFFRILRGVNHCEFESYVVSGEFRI

SMILES: CC(C)C[C@H](NC(=O)[C@H]1O[C@@H]1C(=O)O)C(=O)NCCCCN=C(N)N [E-64, L-trans-epoxysuccinyl-leucyl-amido (4-guanidino) butane]
- ovine fibrinogen degradation, SDS-PAGE [1]: ablation of the fibrinogenolytic activities of mHcCBP1, mHcCP1c (Figure 7A)
- ovine fibrinogen degradation, SDS-PAGE [2]: ablation of the fibrinogenolytic activities of mHcCBP1, mHcCP1c (Figure 7A)
